Laboratory results from patent US6960589B2, “Benzimidazoles that are useful in treating sexual dysfunction” (Abbott Laboratories, priority 2001, dated 2005).
Where “and” joins values, the source holds several entries; their conditions need not be identical. Equal entries are not always repeated.

Tests used:
Wistar rats = experiment: Rat penile erection model; format: in vivo; details: for Induction of penile erections in rats (result in words): subcutaneous administration, doses of 0.01 μmol/kg to 0.10 μmol/kg
Method: Wistar rats were used as a primary animal model to study penile erection in vivo. All experiments were carried out between 9:00 AM and 3:00 PM in a diffusely illuminated testing room with a red light. Animals were weighed and allowed to adapt to the testing room for 60 minutes before the beginning of experiments. Rats were placed individually in a transparent cage (20×30×30 cm) after drug injection.
(L)-Ascorbic acid in saline (1 mg/mL) was used as vehicle. Twelve animals were used per dose.

Male Fitch ferrets = system: Male Fitch ferrets; design: species or system ferret; details: in vivo, sc
Method: Male Fitch ferrets (body weights 1.0-1.5 kg) were obtained from Marshall Farms. Ferrets were fasted overnight before experimentation. Apomorphine or a compound of the present invention was administrated subcutaneously; animals were placed individually in observation cages and the drug-induced emesis and signs of nausea were determined (by direct observation) for a period of 90 minutes following drug injection. Nausea was characterized by behaviors such as licking, gagging, backing, head burying, and intense abdominal grooming. Emesis was usually preceded by these behaviors and was characterized by rhythmic abdominal contractions which were associated with vomiting or retching movement.
Sterile saline was used as vehicle. Six animals were used per dose.

melting point [°C]	Compound	also measured
203 to 205	c1ccc2[nH]c(CN3CCN(c4nccs4)CC3)nc2c1 [Example 7, 2-{[4-(1,3-thiazol-2-yl)piperazin-1-yl]methyl}-1H-benzimidazole]	–
95 to 100	CCOc1ccccc1N1CCN(Cc2nc3ccccc3[nH]2)CC1 [Example 19, 2-{[4-(2-ethoxyphenyl)piperazin-1-yl]methyl}-1H-benzimidazole]	–
174 to 176	CN(C)C(=O)n1c(CN2CCN(c3ccccn3)CC2)nc2ccccc21 [Example 10, N,N-dimethyl-2-[(4-pyridin-2-ylpiperazin-1-yl)methyl]-1H-benzimidazole-1-carboxamide]	–
198 to 200	c1cnc(N2CCN(Cc3nc4ccccc4[nH]3)CC2)nc1 [Example 2, 2-[(4-pyrimidin-2-ylpiperazin-1-yl)methyl]-1H-benzimidazole]	–
210 to 212	Fc1cccnc1N1CCN(Cc2nc3ccccc3[nH]2)CC1 [Example 28, 2-{[4-(3-fluoropyridin-2-yl)piperazin-1-yl]methyl}-1H-benzimidazole]	–
–	c1ccc(N2CCN(Cc3nc4ccccc4[nH]3)CC2)nc1 [2-[(4-pyridin-2-ylpiperazin-1-yl)methyl]-1H-benzimidazole]	Induction of penile erections in rats (result in words) (Wistar rats): induced statistically significant penile erections; Induction of emesis in ferrets (result in words) (Male Fitch ferrets): did not induce emesis
151 to 153	C[C@@H]1CN(c2ccccn2)CCN1Cc1nc2ccccc2[nH]1 [Example 26, 2-{[(2R)-2-methyl-4-pyridin-2-ylpiperazin-1-yl]methyl}-1H-benzimidazole]	–
149 to 151	C[C@H]1CN(c2ccccn2)CCN1Cc1nc2ccccc2[nH]1 [Example 25, 2-{[(2S)-2-methyl-4-pyridin-2-ylpiperazin-1-yl]methyl}-1H-benzimidazole]	–
–	CN1CCc2cccc3c2[C@H]1Cc1ccc(O)c(O)c1-3 [Apomorphine, (6aR) 5,6,6a,7-tetrahydro-6-methyl-4H-dibenzo[de,g]quinoline-10,11-diol, reference compound]	Incidence (%) of penile erection (animals exhibiting 1 or more erections) (Wistar rats; rats, dose 0.1 μmol/kg, observed 60 minutes after dosing): 83% and 93%
214 to 216	CSc1ccccc1N1CCN(Cc2nc3ccccc3[nH]2)CC1 [Example 18, 2-({4-[2-(methylthio)phenyl]piperazin-1-yl}methyl)-1H-benzimidazole]	–
208 to 216	Oc1ccccc1N1CCN(Cc2nc3ccccc3[nH]2)CC1 [Example 20, 2-[4-(1H-benzimidazol-2-ylmethyl)piperazin-1-yl]phenol]	–
120 to 121	O=C(N1CCCC1)n1c(CN2CCN(c3ccccn3)CC2)nc2ccccc21 [Example 9, 2-[(4-pyridin-2-ylpiperazin-1-yl)methyl]-1-(pyrrolidin-1-ylcarbonyl)-1H-benzimidazole]	–
144 to 145	Oc1ccc(N2CCN(Cc3nc4ccccc4[nH]3)CC2)nc1 [6-[4-(1H-benzimidazol-2-ylmethyl)piperazin-1-yl]pyridin-3-ol]	Induction of penile erections in rats (result in words) (Wistar rats): induced statistically significant penile erections
206 to 209	Oc1ccc(N2CCN(Cc3nc4ccccc4[nH]3)CC2)cc1 [Example 17, 4-[4-(1H-benzimidazol-2-ylmethyl)piperazin-1-yl]phenol]	–
207 to 209	CC1CN(c2ccccn2)CCN1Cc1nc2ccccc2[nH]1 (centres unmarked) [Example 24, 2-[(2-methyl-4-pyridin-2-ylpiperazin-1-yl)methyl]-1H-benzimidazole]	–
262 to 264	Fc1ccccc1N1CCN(Cc2nc3ccccc3[nH]2)CC1 [Example 14, 2-{[4-(2-fluorophenyl)piperazin-1-yl]methyl}-1H-benzimidazole]	–
208 to 210	N#Cc1cccnc1N1CCN(Cc2nc3ccccc3[nH]2)CC1 [Example 4, 2-[4-(1H-benzimidazol-2-ylmethyl)piperazin-1-yl]nicotinonitrile]	–
236 to 237	N#Cc1ccccc1N1CCN(Cc2nc3ccccc3[nH]2)CC1 [Example 12, 2-[4-(1H-benzimidazol-2-ylmethyl)piperazin-1-yl]benzonitrile]	–
